Results from PubChem BioAssay (NCI).
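Where inhibition never reached the appropriate level, the endpoint shown equals the highest concentration tested. Otherwise, values were interpolated linearly from a five-concentration, 48-hour dose response in 96-well plates. TGI denotes the concentration required for complete inhibition of growth.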 Where a SMILES comes first, the peptide text is derived from it. [ ]: non-standard residue; d: D form.

How the values were obtained:
Assay in all cases: inhibition of tumour cell growth, NCI panel, 48 h
[1] = tested on: MALME-3M melanoma
[2] = tested on: MOLT-4 leukemia
[3] = tested on: MDA-MB-231 breast
[4] = tested on: A549 NSCLC
[5] = tested on: NCI/ADR-RES ovarian
[6] = tested on: MDA-N
[7] = tested on: TK-10 renal
[8] = tested on: RXF 393 renal
[9] = tested on: SK-MEL-2 melanoma
[10] = tested on: COLO 205 colon
[11] = tested on: M14 melanoma
[12] = tested on: MCF7 breast
[13] = tested on: HCC-2998 colon
[14] = tested on: CAKI-1 renal
[15] = tested on: SF-295 CNS
[16] = tested on: SK-MEL-28 melanoma
[17] = tested on: KM12 colon
[18] = tested on: DLD-1 colon
[19] = tested on: DMS 114 small cell lung
[20] = tested on: XF 498 CNS

Row | SMILES | TGI [1] [µM] | TGI [2] [µM] | TGI [3] [µM] | TGI [4] [µM] | TGI [5] [µM] | TGI [6] [µM] | TGI [7] [µM] | TGI [8] [µM] | TGI [9] [µM] | TGI [10] [µM] | TGI [11] [µM] | TGI [12] [µM] | TGI [13] [µM] | TGI [14] [µM] | TGI [15] [µM] | TGI [16] [µM] | TGI [17] [µM] | TGI [18] [µM] | TGI [19] [µM] | TGI [20] [µM]
1 | O=c1oc2cc(O)ccc2c(O)c1Cc1c(O)c2ccc(O)cc2oc1=O | > 100 | > 100 | > 100 | > 100 | > 100 | > 100 | > 100 | > 100 | > 100 | > 100 | > 100 | > 100 | > 100 | > 100 | > 100 | > 100 | – | – | – | –
2 | O=c1cc(-c2ccccc2)[nH]c2nccn12 | > 10 | > 10 | > 10 | > 10 | > 10 | > 10 | > 10 | > 10 | > 10 | > 10 | > 10 | > 10 | > 10 | > 10 | > 10 | > 10 | > 10 | – | – | –
3 | Cc1ccc2c(=O)c3ccccc3sc2c1 | > 100 | > 100 | – | > 100 | – | – | > 100 | > 100 | – | > 100 | > 100 | – | > 100 | > 100 | – | > 100 | > 100 | > 100 | – | –
4 | CC(=O)Nc1cccc(N=NN(C)C)c1 | > 100 | > 100 | – | > 100 | > 100 | – | – | > 100 | > 100 | > 100 | – | > 100 | > 100 | > 100 | > 100 | > 100 | > 100 | > 31.6 | > 100 | > 100
5 | CCn1cnnc1-c1nsc2ccccc12 | – | – | – | > 100 | – | – | > 100 | > 100 | > 100 | > 100 | > 100 | – | > 100 | – | – | > 100 | > 100 | – | > 100 | –
6 | CCC1NC(N=Nc2ccc([N+](=O)[O-])cc2)(P(=O)(OC(C)C)OC(C)C)OC1=O (centres undefined) | > 100 | > 100 | – | > 100 | – | – | > 100 | – | > 100 | > 100 | > 100 | – | > 100 | > 100 | > 100 | > 100 | > 100 | > 100 | – | > 100
7 | CC(C)NC(=O)OCc1c2c(n(C)c1COC(=O)NC(C)C)-c1ccccc1CC2 | 19.2 | 8.95 | – | 89.9 | 32.2 | – | – | 27.3 | 29.5 | 21.6 | – | 22.4 | 26.3 | 25.5 | 30.2 | 26.2 | 29 | 16.9 | 17 | 28.2
8 | O=C(O)C1CCCCN1c1ccccc1[N+](=O)[O-] (centres undefined) | > 100 | > 100 | – | > 100 | – | – | > 100 | > 100 | > 100 | – | > 100 | – | > 100 | > 100 | > 100 | – | – | > 100 | > 100 | > 100
9 | CC1=CC2c3cccc4[nH]cc(c34)CC2N(C)C1 (centres undefined) | > 100 | > 100 | – | > 100 | > 100 | – | – | > 100 | > 100 | > 100 | – | > 100 | 86 | > 100 | > 100 | > 100 | > 100 | > 88.2 | > 100 | 99.1
10 | CN(Cc1cnc2c(N)nc(N)nc2n1)c1ccc(Cl)cc1 | > 100 | > 100 | > 100 | – | > 100 | > 100 | > 100 | 61.5 | > 100 | > 100 | > 100 | > 100 | – | > 100 | > 100 | – | > 100 | – | – | –
11 | CC(C)C[C@H](NC(=O)[C@H](CC(C)C)NC(=O)[C@@H](Cc1c[nH]c2ccccc12)NC(=O)[C@H](Cc1ccccc1)NC(=O)[C@@H](Cc1c[nH]c2ccccc12)NC(=O)[C@H](CCC(N)=O)NC(=O)[C@H](CCC(N)=O)NC(=O)[C@H]1CCCN1C(=O)[C@@H](N)CCCCN)C(N)=O (H-K[dP]QQ[dW]F[dW]LL-NH2) | > 100 | > 100 | – | > 100 | > 100 | – | – | > 100 | > 100 | > 100 | – | > 100 | > 100 | – | > 100 | > 100 | > 100 | > 100 | – | > 100
12 | O=[N+]([O-])c1ccc(NNN=Nc2ccc(-c3nc4ccccc4s3)cc2)c([N+](=O)[O-])c1 | 77.6 | 53.5 | 64.3 | > 100 | 81.5 | 35.3 | > 100 | 50.5 | 41.8 | 31.5 | 35.2 | – | 36.6 | > 100 | 42.6 | > 100 | > 100 | – | – | –
